Tests used:
[1] = target: T1, Phosphodiesterase-5 enzyme (PDE 5) (Homo sapiens, UniProt O76074); assay: Test for phosphodiesterase-5 (PDE 5) activity; format: biochemical; details: PDE 5 fraction from human corpus cavernosal tissues
T1 construct: separated by HPLC (Mono Q anion exchange column) with concentration gradient of 0-500 mM NaCl to elute PDE isozymes; from tissue; host or cells: human corpus cavernosal tissue

[2] = Acute oral toxicity test in rats; details: SD, rat, in vivo, 1 g/kg; rats, oral single dose; read-out: lethal dose (LD50) of oral administration
rats = assay: Penile erection test using rats; format: in vivo, rat; details: oral single dose 10 mg/kg in 0.5% methyl cellulose, observed for 2 hours
[3] = target: T2, Phosphodiesterase-3 enzyme (PDE 3) (Oryctolagus cuniculus, UniProt G1ST54); assay: Test for phosphodiesterase-3 (PDE 3) activity; format: biochemical; details: PDE 3 fraction from platelets of a rabbit
T2 construct: The supernatant was separated by DEAE-cellulose column chromatography (Whatman DE52 bead); from tissue; host or cells: rabbit platelets
T2 sequence (G1ST54 1-1128): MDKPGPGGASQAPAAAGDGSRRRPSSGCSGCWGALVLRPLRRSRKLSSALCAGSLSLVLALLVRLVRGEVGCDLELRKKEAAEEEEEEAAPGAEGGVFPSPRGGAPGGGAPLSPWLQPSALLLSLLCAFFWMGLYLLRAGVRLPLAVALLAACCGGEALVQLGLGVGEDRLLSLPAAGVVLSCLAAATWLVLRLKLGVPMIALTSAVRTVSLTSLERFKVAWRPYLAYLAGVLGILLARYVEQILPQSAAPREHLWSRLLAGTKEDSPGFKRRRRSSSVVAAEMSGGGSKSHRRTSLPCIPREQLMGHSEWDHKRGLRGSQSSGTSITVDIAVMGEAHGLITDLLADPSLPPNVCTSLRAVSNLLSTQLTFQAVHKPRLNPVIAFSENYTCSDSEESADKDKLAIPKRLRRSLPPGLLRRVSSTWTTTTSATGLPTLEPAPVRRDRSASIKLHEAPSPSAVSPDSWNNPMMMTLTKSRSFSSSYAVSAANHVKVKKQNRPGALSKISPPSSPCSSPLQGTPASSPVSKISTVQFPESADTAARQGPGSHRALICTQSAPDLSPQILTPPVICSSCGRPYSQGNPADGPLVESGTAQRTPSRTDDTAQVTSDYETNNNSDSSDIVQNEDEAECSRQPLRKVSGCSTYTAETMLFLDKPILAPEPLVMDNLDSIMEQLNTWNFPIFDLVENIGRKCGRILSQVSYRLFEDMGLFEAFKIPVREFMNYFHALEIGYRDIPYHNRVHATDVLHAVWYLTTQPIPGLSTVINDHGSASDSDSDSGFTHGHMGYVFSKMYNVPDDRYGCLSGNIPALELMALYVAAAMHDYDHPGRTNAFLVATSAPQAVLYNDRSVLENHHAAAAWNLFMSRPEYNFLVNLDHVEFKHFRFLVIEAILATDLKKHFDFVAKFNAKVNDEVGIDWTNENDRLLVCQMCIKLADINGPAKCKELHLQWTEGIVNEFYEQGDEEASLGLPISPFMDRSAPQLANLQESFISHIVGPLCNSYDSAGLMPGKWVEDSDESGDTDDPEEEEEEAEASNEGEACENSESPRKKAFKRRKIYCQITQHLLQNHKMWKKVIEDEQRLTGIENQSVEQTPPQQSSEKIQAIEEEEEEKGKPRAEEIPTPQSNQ
Procedure: Phosphodiesterase-3 enzyme (PDE 3) was separated from platelets of a rabbit. About 60 ml of blood was collected from a puncture of the abdominal artery of a rabbit in heparinized syringes. Platelet-rich plasma was harvested by centrifugation for 5 min at 450×g and further centrifuged for 15 min at 1,200×g to precipitate the platelets. The platelets were resuspended in homogenizing buffer (50 mM Tris-HCl, 1 mM MgCl2, pH 7.4), homogenized at 4° C. and ultrasonicated (30 sec/ml). The homogenized solution was centrifuged (105,000×g) for 1 hr at 4° C. to obtain the supernatant in which PDE was dissolved. The supernatant was separated by DEAE-cellulose column chromatography (Whatman DE52 bead) by using eluent (50 mM Tris-HCl, 3.75mM2-mercaptoethanol, pH 6.0) with concentration gradient of 0-1 M sodium acetate to elute PDE isozymes. The PDE activity was measured on the each column fraction by the following process to separate PDE 3 fraction and the inhibition for PDE 3 of the compounds of formula 1 was measured by using the fraction.
To 1.5 ml tube containing 100 ul of reaction mixture (15 mM Tris-HCl, 5 mM MgCl2, 0.5 mg/ml BSA, pH 7.4) were added appropriate amount of PDE 3 fraction and PDE inhibitor and the solution was mixed well. After [^3H]-cAMP or [^3H]-cGMP (500 nM, 2 uCi/ml) was added, the mixture was reacted in incubator of 30° C. for about 1 hour and the reaction was quenched by putting the tube into boiling water for about 45 seconds to 2 min. The tube was chilled in ice bath for about 5 min. To this tube was added snake venom (1 mg/ml, 100 ul) or 5′-nucleotidase (0.1 unit/tube) and the mixture was reacted in incubator of 37° C. for 10 min and chilled in ice bath. 3 times volume of methanol to the resin was added to the anion exchange resin (Bio-Rad resin, AG1-X2, 200-400 mesh) which had been already washed with 0.5 N HCl, H2O, 0.5 N NaOH, H2O, 0.5 N HCl and H2O in order and adjusted to pH 5. Then 1 ml of the pretreated resin was added to the each tube with vortexing. The mixture was left at 4° C. for 15 min with occasional vortexing and centrifuged (10,000 rpm) for about 5 min to sediment the resin. The supernatant (700 ul) was transferred to a liquid scintillation vial, and mixed with 10 ml of scintillation cocktail. After stabilizing the mixture by leaving it overnight, the radioactivity of the tube was measured by β-counter.

Row | SMILES | IC50 [1] [nM] | LD50 [2] [mg/kg] | PEI (penile erection index) (rats) | genital grooming (number of genital groomings) (rats) | IC50 [3] [nM]
1 | CCOc1ccc(S(=O)(=O)NCc2ccccc2)cc1-c1nc2c(CC(C)C)nn(C)c2c(=O)[nH]1 [Example 2, 5-[2-ethoxy-5-(benzylamidosulfonyl)phenyl]-1-methyl-3-isobutyl-1,6-dihydro-7H-pyrazolo(4,3-d)pyrimidin-7-one] | 10.8 | > 1000 | 533.3 ± 305.5 | 5.7 ± 2.5 | > 202000
2 | CCCOc1ccc(S(=O)(=O)NC(C)C)cc1-c1nc2c(CCC)nn(C)c2c(=O)[nH]1 [Example 3, 5-[2-propyloxy-5-(isopropylamidosulfonyl)phenyl]-1-methyl-3-propyl-1,6-dihydro-7H-pyrazolo(4,3-d)pyrimidin-7-one] | 5.36 | > 1000 | 233.3 ± 152.8 | 2.7 ± 2.1 | > 223000
3 | CCCCNS(=O)(=O)c1ccc(OCC)c(-c2nc3c(CCC)nn(C)c3c(=O)[nH]2)c1 [Example 9, 5-[2-ethoxy-5-(butylamidosulfonyl)phenyl]-1-methyl-3-propyl-1,6-dihydro-7H-pyrazolo(4,3-d)pyrimidin-7-one] | 10.7 | > 1000 | 200.0 ± 100.0 | 4.7 ± 1.2 | > 223000
4 | CCCc1nn(CC)c2c(=O)[nH]c(-c3cc(S(=O)(=O)Nc4ccc(F)cc4)ccc3OCC)nc12 [Example 33, 5-[2-ethoxy-5-(4-fluorophenylamidosulfonyl)phenyl]-1-ethyl-3-propyl-1,6-dihydro-7H-pyrazolo(4,3-d)pyrimidin-7-one] | 19.7 | > 1000 | 233.3 ± 57.7 | 2.7 ± 0.6 | 188000
5 | CCCc1nn(C)c2c(=O)[nH]c(-c3cc(S(=O)(=O)Nc4ccncc4)ccc3OCC)nc12 [Example 34, 5-[2-ethoxy-5-(4-pyridylamidosulfonyl)phenyl]-1-methyl-3-propyl-1,6-dihydro-7H-pyrazolo(4,3-d)pyrimidin-7-one] | 3.44 | > 1000 | 166.7 ± 57.7 | 1.3 ± 0.6 | 184000
6 | CCCc1nn(C)c2c(=O)[nH]c(-c3cc(S(=O)(=O)Nc4cccnc4)ccc3OCC)nc12 [Example 38, 5-[2-ethoxy-5-(3-pyridylamidosulfonyl)phenyl]-1-methyl-3-propyl-1,6-dihydro-7H-pyrazolo(4,3-d)pyrimidin-7-one] | 8.07 | > 1000 | 233.3 ± 230.9 | 2.7 ± 2.9 | 208000
7 | CCCOc1ccc(S(=O)(=O)Nc2cccnc2)cc1-c1nc2c(CCC)nn(C)c2c(=O)[nH]1 [Example 39, 5-[2-propyloxy-5-(3-pyridylamidosulfonyl)phenyl)-1-methyl-3-propyl-1,6-dihydro-7H-pyrazolo(4,3-d)pyrimidin-7-one] | 1.16 | > 1000 | 166.7 ± 57.7 | 1.3 ± 1.5 | 41700
8 | CCOc1ccc(S(=O)(=O)Nc2cccnc2)cc1-c1nc2c(CC(C)C)nn(C)c2c(=O)[nH]1 [Example 41, 5-[2-ethoxy-5-(3-pyridylamidosulfonyl)phenyl]-1-methyl-3-isobutyl-1,6-dihydro-7H-pyrazolo(4,3-d)pyrimidin-7-one] | 2.28 | > 1000 | 177.8 ± 203.7 | 1.7 ± 1.5 | 9930
9 | CCCc1nn(C)c2c(=O)[nH]c(-c3cc(S(=O)(=O)NCc4cccnc4)ccc3OCC)nc12 [Example 47, 5-[2-ethoxy-5-(3-pyridylmethylamidosulfonyl)phenyl]-1-methyl-3-propyl-1,6-dihydro-7H-pyrazolo(4,3-d)pyrimidin-7-one] | 2.78 | > 1000 | 200.0 ± 100.0 | 3.0 ± 1.0 | 20900
10 | CCCOc1ccc(S(=O)(=O)NCc2ccccn2)cc1-c1nc2c(CCC)nn(C)c2c(=O)[nH]1 [Example 52, 5-[2-propyloxy-5-(2-pyridylmethylamidosulfonyl)phenyl]-1-methyl-3-propyl-1,6-dihydro-7H-pyrazolo(4,3-d)pyrimidin-7-one] | 9.89 | > 1000 | 233.3 ± 57.7 | 3.0 ± 1.0 | > 201000
11 | CCCOc1ccc(S(=O)(=O)NC2CCN(C)C2)cc1-c1nc2c(CCC)nn(C)c2c(=O)[nH]1 (stereo not drawn) [Example 53, 5-[2-propyloxy-5-(1-methyl-3-pyrrolidinylamidosulfonyl)phenyl]-1-methyl-3-propyl-1,6-dihydro-7H-pyrazolo(4,3-d)pyrimidin-7-one] | 20.9 | > 1000 | 300.0 ± 200.0 | 2.7 ± 2.1 | > 205000
12 | CCCc1nn(CC)c2c(=O)[nH]c(-c3cc(S(=O)(=O)NCC4CCCN4C)ccc3OCC)nc12 (stereo not drawn) [Example 57] | 33.3 |  | 131.3 ± 128.1 | 1.8 ± 1.3 | 47700
13 | CCCc1nn(C)c2c(=O)[nH]c(-c3cc(S(=O)(=O)NCC4CCN(C)C4)ccc3OCC)nc12 (stereo not drawn) [Example 59] | 140 |  | 150.0 ± 57.7 | 1.5 ± 0.6 | 122000
14 | CCCc1nn(C)c2c(=O)[nH]c(-c3cc(S(=O)(=O)NCC4CCN(CC)C4)ccc3OCC)nc12 (stereo not drawn) [Example 63] | 98.2 |  | 12.5 ± 25.0 | 1.5 ± 0.6 | 52300
15 | CCCc1nn(CC)c2c(=O)[nH]c(-c3cc(S(=O)(=O)NCC4CCN(CC)C4)ccc3OCC)nc12 (stereo not drawn) [Example 65] | 74.5 |  | 93.8 ± 94.4 | 1.8 ± 1.0 | 32100
16 | CCCc1nn(CC)c2c(=O)[nH]c(-c3cc(S(=O)(=O)NCCC4CCCN4C)ccc3OCC)nc12 (stereo not drawn) [Example 69] | 31.9 |  | 225.0 ± 95.7 | 2.3 ± 1.0 | 76500

From patent publication US6583147B1, “Pyrazolopyrimidinone derivatives for the treatment of impotence” (Dong A Pharm Co., Ltd., priority 1998, dated 2003)
